Laboratory results published in ChEMBL document CHEMBL5465560, “Selectivity Literature for EUbOPEN Chemogenomic Library” (2024).

Tests used:
[1] = test system: Proto-oncogene tyrosine-protein kinase receptor Ret (Homo sapiens), P07949 [S891A]; assay: (§1) Selectivity interaction (Kinase panel (Z-LYTE Assay)) EUB0001632a RET; conditions: at 10 µM
[2] = test system: Proto-oncogene tyrosine-protein kinase receptor Ret (Homo sapiens), P07949 [V804L]; assay: as §1; conditions: at 10 µM
[3] = test system: Proto-oncogene tyrosine-protein kinase receptor Ret (Homo sapiens), P07949 [Y791F]; assay: as §1; conditions: at 10 µM
Sequence of Proto-oncogene tyrosine-protein kinase receptor Ret (Homo sapiens), P07949 [Y791F] (P07949 whole entry Y791F): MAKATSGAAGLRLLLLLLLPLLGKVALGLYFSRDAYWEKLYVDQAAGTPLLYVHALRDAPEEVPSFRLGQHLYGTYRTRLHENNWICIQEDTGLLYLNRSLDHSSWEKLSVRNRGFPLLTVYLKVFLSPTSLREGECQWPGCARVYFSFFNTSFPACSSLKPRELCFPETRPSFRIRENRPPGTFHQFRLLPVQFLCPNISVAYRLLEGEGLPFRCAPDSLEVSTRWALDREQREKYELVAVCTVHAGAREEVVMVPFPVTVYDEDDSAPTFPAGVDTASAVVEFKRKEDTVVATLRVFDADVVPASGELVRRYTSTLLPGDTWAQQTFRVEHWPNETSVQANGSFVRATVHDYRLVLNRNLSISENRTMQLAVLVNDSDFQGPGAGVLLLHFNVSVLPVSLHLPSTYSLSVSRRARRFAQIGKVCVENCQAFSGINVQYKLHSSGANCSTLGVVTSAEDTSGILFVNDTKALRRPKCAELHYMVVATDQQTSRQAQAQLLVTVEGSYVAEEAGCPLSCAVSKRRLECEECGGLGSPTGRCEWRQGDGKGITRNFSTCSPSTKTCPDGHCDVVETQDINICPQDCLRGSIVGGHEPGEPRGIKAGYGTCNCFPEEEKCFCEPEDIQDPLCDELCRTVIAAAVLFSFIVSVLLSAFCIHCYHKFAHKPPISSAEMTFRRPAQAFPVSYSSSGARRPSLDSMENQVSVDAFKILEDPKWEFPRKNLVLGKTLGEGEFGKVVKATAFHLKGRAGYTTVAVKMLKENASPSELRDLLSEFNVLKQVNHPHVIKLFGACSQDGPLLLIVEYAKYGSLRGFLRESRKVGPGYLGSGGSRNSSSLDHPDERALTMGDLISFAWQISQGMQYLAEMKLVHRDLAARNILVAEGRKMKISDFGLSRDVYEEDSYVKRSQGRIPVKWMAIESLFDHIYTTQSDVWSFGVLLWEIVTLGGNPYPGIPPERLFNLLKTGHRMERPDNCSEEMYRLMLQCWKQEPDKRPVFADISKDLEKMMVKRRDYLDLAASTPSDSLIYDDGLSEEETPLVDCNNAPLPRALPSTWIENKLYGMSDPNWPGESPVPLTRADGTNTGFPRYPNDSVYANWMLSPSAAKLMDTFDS

[4] = target: Proto-oncogene tyrosine-protein kinase receptor Ret (Homo sapiens, UniProt P07949); assay: as §1; conditions: at 10 µM
Sequence of Proto-oncogene tyrosine-protein kinase receptor Ret (P07949 whole entry): as the sequence (P07949 whole entry Y791F) above, with F791Y counted along it

[5] = test system: Angiopoietin-1 receptor (Homo sapiens), Q02763 [R849W]; assay: (§2) Selectivity interaction (LanthaScreen Eu Kinase Binding Assay) EUB0001632a TEK; conditions: at 10 µM
Sequence of Angiopoietin-1 receptor (Homo sapiens), Q02763 [R849W] (Q02763 whole entry R849W): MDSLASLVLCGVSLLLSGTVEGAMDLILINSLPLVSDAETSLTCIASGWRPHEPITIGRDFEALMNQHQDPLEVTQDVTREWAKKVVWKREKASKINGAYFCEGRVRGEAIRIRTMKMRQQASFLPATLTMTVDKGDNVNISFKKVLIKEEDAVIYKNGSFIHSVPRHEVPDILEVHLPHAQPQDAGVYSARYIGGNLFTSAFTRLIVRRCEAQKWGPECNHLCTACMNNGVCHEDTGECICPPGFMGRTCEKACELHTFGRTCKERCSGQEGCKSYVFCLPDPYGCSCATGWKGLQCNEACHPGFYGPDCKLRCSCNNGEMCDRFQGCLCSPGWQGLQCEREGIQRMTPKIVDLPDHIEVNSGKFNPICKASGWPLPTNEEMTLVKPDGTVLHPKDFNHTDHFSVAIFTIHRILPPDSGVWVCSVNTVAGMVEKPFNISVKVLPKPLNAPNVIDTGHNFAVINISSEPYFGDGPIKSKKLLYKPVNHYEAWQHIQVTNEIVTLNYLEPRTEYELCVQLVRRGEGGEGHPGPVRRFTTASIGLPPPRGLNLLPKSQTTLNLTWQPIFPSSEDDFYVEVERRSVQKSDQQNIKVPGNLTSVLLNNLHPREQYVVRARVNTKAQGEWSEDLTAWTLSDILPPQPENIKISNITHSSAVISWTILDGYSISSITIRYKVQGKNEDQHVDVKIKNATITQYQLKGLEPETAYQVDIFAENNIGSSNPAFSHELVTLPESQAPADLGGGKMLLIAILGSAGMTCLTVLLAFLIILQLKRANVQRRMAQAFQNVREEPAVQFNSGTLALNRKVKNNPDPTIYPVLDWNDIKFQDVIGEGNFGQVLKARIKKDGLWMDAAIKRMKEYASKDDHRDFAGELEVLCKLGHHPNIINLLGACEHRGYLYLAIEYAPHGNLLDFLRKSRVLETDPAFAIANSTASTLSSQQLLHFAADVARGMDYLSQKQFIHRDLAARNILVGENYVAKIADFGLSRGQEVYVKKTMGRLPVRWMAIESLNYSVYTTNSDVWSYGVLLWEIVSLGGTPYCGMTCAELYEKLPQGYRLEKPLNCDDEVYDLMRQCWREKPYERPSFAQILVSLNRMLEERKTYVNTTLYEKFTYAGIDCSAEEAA

[6] = test system: Angiopoietin-1 receptor (Homo sapiens), Q02763 [Y1108F]; assay: as §2; conditions: at 10 µM
Sequence of Angiopoietin-1 receptor (Homo sapiens), Q02763 [Y1108F] (Q02763 whole entry Y1108F): as the sequence (Q02763 whole entry R849W) above, with W849R, Y1108F counted along it

[7] = target: Rho-associated protein kinase 1 (Homo sapiens) (UniProt Q13464); assay: Selectivity interaction (KinomeScan (DiscoverX)) EUB0000666a ROCK1; conditions: at 10 µM
Sequence of Rho-associated protein kinase 1 (Homo sapiens) (Q13464 2-1354 limits assumed): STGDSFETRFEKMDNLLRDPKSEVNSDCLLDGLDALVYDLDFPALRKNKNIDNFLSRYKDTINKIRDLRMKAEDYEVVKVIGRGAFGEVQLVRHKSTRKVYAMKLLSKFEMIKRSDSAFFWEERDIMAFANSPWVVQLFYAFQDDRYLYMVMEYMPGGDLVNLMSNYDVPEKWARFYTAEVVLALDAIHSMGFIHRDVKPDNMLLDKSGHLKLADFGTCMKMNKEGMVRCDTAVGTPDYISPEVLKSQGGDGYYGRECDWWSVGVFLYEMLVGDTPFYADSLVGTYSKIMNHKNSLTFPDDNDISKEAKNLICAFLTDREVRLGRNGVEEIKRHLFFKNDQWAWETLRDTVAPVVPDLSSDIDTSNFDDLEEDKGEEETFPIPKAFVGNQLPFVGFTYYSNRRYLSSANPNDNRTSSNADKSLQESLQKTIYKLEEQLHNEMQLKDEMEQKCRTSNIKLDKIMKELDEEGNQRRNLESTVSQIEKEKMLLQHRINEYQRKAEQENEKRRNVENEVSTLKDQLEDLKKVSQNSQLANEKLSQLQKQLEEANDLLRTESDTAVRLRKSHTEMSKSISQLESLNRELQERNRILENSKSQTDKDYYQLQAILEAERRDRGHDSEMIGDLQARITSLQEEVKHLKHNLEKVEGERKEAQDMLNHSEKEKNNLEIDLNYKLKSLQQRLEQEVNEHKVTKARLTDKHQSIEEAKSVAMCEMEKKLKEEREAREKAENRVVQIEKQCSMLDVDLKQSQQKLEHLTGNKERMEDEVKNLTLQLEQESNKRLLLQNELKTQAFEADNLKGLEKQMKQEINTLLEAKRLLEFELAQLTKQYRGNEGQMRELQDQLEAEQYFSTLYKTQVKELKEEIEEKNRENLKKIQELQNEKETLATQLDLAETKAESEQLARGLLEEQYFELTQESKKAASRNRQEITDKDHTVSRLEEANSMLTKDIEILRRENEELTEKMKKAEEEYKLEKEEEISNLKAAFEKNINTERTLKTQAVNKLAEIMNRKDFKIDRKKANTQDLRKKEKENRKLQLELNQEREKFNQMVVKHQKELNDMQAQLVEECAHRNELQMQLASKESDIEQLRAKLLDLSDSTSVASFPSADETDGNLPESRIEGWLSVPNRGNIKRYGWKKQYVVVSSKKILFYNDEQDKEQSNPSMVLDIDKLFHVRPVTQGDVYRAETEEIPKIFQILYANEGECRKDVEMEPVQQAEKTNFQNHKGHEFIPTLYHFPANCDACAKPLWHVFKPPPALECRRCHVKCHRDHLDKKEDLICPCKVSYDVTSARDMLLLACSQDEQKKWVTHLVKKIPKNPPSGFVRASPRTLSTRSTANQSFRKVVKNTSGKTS

[8] = target: Hepatocyte growth factor receptor (Homo sapiens, UniProt P08581); assay: Selectivity interaction (Kinase panel (33PanQinase(R) Activity Assay)) EUB0000877a MET
[9] = target: T1, Phosphatidylinositol 4,5-bisphosphate 3-kinase catalytic subunit delta isoform (Homo sapiens) (UniProt O00329); assay: Selectivity interaction (KinomeScan (DiscoverX)) EUB0000877a PIK3CD; conditions: at 10 µM
T1 sequence (whole entry): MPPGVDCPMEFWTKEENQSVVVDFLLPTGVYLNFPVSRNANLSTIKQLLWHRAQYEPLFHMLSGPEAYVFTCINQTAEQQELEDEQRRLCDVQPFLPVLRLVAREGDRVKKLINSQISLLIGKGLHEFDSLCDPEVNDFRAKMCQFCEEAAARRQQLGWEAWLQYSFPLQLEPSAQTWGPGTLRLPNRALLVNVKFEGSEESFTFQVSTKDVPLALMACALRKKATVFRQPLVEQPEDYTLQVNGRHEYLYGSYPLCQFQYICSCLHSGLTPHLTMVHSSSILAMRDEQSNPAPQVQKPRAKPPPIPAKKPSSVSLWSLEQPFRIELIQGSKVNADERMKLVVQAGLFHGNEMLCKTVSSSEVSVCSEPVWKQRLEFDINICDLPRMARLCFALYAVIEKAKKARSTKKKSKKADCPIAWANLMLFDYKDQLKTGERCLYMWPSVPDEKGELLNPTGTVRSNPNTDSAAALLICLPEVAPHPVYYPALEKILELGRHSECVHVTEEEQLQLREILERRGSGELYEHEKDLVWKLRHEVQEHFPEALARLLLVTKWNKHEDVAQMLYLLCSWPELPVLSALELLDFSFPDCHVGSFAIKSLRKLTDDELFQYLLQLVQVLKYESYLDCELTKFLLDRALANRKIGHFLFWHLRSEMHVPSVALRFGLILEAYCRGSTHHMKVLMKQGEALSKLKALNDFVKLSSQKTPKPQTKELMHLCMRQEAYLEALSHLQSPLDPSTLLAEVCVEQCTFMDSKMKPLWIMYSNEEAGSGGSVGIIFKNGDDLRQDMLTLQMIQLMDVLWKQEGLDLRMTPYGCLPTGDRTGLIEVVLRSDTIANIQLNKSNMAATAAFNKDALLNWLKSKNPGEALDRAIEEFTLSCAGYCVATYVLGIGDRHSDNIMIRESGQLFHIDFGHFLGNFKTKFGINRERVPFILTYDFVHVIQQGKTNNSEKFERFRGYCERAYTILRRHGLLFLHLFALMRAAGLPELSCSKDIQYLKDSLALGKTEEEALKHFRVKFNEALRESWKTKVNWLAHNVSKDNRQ

[10] = target: T2, Serine/threonine-protein kinase DCLK1 (Homo sapiens) (UniProt O15075); assay: Selectivity interaction (KinomeScan (DiscoverX)) EUB0001619a DCLK1; conditions: at 1 µM
T2 sequence (whole entry): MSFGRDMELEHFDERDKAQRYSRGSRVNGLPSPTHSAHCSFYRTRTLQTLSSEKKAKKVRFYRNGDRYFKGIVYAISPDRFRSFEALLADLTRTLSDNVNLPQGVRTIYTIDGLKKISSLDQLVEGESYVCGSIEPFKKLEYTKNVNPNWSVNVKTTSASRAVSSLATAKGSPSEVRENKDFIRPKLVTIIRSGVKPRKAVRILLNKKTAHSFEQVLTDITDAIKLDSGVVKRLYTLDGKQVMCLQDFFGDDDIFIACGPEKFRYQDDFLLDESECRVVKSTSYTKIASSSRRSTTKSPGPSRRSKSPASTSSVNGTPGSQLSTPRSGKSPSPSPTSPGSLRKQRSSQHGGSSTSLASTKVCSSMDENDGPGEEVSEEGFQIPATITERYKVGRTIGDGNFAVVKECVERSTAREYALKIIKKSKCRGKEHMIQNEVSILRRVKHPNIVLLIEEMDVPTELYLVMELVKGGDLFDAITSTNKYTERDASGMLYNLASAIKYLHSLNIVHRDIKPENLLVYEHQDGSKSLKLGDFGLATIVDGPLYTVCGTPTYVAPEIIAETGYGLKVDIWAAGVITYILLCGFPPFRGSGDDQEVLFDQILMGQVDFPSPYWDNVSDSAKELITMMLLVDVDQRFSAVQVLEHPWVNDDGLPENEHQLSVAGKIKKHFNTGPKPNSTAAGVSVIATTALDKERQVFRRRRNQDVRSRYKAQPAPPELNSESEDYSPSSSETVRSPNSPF

[11] = target: Mitogen-activated protein kinase kinase kinase 8 (Homo sapiens, UniProt P41279); assay: Selectivity interaction (Kinase panel (Invitrogen)) EUB0000639a MAP3K8; conditions: at 200 nM
Sequence of Mitogen-activated protein kinase kinase kinase 8 (P41279 whole entry): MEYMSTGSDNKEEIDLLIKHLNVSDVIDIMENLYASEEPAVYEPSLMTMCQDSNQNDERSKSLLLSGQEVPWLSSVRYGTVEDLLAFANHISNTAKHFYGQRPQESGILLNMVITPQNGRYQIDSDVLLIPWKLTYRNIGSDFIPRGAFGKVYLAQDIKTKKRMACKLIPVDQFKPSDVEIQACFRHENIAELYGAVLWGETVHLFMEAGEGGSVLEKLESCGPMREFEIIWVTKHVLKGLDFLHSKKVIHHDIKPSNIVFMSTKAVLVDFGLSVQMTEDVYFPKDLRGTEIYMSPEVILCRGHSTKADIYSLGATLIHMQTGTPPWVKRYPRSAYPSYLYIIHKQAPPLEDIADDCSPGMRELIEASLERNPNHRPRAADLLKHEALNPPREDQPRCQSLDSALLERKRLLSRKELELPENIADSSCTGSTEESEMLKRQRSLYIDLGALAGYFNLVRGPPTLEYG

[12] = target: Protein-tyrosine kinase 6 (Homo sapiens, UniProt Q13882); assay: Selectivity interaction (KinomeScan (DiscoverX)) EUB0000655a PTK6; conditions: at 10 µM
Sequence of Protein-tyrosine kinase 6 (Q13882 whole entry, looked up): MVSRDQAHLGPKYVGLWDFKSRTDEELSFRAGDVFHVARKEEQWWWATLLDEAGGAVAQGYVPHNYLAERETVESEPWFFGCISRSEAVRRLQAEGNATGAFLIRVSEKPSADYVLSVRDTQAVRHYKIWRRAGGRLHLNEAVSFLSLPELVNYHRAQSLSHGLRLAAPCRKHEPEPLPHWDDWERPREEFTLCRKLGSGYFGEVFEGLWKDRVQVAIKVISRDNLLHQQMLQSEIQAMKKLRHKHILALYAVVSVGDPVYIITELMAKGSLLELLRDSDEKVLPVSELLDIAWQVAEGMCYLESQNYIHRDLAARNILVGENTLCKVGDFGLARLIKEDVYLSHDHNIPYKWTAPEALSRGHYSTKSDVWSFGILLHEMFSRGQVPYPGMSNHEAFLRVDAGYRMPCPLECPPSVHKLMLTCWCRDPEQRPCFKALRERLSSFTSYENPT

Sequence of Proto-oncogene tyrosine-protein kinase receptor Ret (Homo sapiens), P07949 [V804L] (P07949 whole entry V804L): as the sequence (P07949 whole entry Y791F) above, with F791Y, V804L counted along it
Sequence of Proto-oncogene tyrosine-protein kinase receptor Ret (Homo sapiens), P07949 [S891A] (P07949 whole entry S891A): as the sequence (P07949 whole entry Y791F) above, with F791Y, S891A counted along it

With Cn1cc(-n2cnc3c(NCc4nc5cc(Cl)c(Cl)cc5[nH]4)nc(N4CCOCC4)nc32)cn1 the % of control [1] was 2.48%, the % of control [2] was 6.91% and the % of control [3] was 6.92%. For the same compound, the % of control [4] was 12%, the % of inhibition [5] was -63.9% and the % of inhibition [6] was -24.4%.
O=C(NOC[C@H](O)CO)c1ccc(F)c(F)c1Nc1ccc(I)cc1F gave a % of control [7] of 100%.
With CCC(=O)N1CC[C@H](Nc2ncnc3c2CN(c2cnc(OC)c(C(F)(F)F)c2)CC3)C1 [LENIOLISIB] the IC50 [8] was > 10 µM and the % of inhibition [9] was 100%.
In the case of N#Cc1cccc(-c2c[nH]c3ncnc(N4CCOCC4)c23)c1, the % of control [10] is reported as 100%.
CC[C@@H]1[C@H](F)C(=O)N[C@@H]1COc1nccc2cc(C(N)=O)c(OC)cc12 [ZIMLOVISERTIB] was tested, and the % of inhibition [11] was 24.9%.
For CN(C)CCOc1ccc(-c2nc(-c3ccncc3)c(-c3ccc4c(c3)CC/C4=N\O)[nH]2)cc1, the % of control [12] was 82%.
